The term EC50 denotes the concentration giving half of the maximal effect.

43 molecules from patent US9458179B2, “Quinuclidine, 1-azabicyclo[2.2.1]heptane, 1-azabicyclo [3.2.1]octane, and 1-azabicyclo[3.2.2]nonane compounds as alpha-7 nicotinic acetylcholine receptor ligands” (BRISTOL-MYERS SQUIBB COMPANY, priority 2012, dated 2016) can be followed below.

The target of one test is T1, α-7 nicotinic ACh receptor ion channel (Rattus norvegicus, UniProt Q05941).
T1 construct: expressed in transfected cells
T1 sequence (Q05941 23-502): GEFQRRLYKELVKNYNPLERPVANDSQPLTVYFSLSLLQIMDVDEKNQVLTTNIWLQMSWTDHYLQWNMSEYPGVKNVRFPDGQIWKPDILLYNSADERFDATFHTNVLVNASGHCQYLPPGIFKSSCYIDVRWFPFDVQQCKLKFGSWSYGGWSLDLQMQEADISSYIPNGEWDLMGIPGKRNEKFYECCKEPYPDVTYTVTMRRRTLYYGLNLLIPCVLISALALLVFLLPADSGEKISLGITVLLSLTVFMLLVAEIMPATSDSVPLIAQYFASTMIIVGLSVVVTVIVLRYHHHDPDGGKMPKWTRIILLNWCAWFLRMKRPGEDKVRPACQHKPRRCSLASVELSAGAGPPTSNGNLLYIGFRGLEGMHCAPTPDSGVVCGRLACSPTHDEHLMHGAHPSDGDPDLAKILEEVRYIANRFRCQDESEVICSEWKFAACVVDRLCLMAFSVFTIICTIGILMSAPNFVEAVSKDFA
Briefly: Ca2+-sensitive fluorescence-based FLIPR assay of α7 nicotinic receptor channel function (agonist activity). In kind it is cell-based. Particulars: FLIPR α7-HI (EC50, nM), HEK 293 cells, Ca2+ flux. The protocol:
II) A Ca^2+-Sensitive, Fluorescence-Based Assay α-7 for Nicotinic Acetylcholine Receptor Channel Function in Mammalian Cells (“FLIPR”).
Lead compounds are evaluated for agonist activity at α-7, α3β4, α4αβ2, and α1β1δ1ε sub-types of nicotinic ACh receptor ion channels expressed in mammalian HEK 293 cells. Agonist potency and efficacy values are determined from kinetic fluorescence Ca^2+ influx measurements made using a 384 well FLIPR (Fluorescence Image Plate Reader). […] In this assay, channel expressing HEK cell lines seeded in 384 well assay plates are loaded with a membrane permeant fluorescent Ca^2+ indicator dye, whose 510 nm green emission signal increases in response to elevation of intracellular Ca^2+ concentration. The basal fluorescence from the cells is monitored in real time, followed by the acute addition of test compounds.
Reagents: The acetomethoxy (AM) ester of the Ca^2+ indicator dye Fluo-4 was obtained from InVitrogen, (Carlsbad, Calif.). Acetylcholine and all buffer constituents were purchased from Sigma Chemical Company, St. Louis, Mo. G418 and Minimal Essential Medium were purchased from InVitrogen Life Technologies, Carlsbad, Calif. Fetal bovine serum was purchased from (InVitrogen, Carlsbad, Calif.).
HEK-293 cells were grown in Minimal Essential Medium containing 10% (v/v) fetal bovine serum at 37° C. in a 5% CO2 incubator. HEK-293 cells stably expressing the ion channels were grown in the same medium with the addition of 500 μg/ml G418.
HEK-293 cells expressing the ion channels of interest were plated in 384 well, black-walled, clear-bottomed, poly-D-lysine coated plates at a density of ˜20,000 cells/well in 20 μl of Minimal Essential Medium containing 10% (v/v) fetal bovine serum and incubated for 2 days at 29° C. in a 5% CO2 incubator. Prior to assay, cells were loaded with the Fluo-4 AM ester. […] Dye loading was allowed to proceed for 90 minutes at room temperature at which time the dye loading solution was removed and replaced with 40 μl/well of Hanks buffer. Cells loaded with dye were loaded onto a FLIPR384 (Molecular Devices, Sunnyvale, Calif.). […] Emission was filtered using a 540+/−30 nm bandpass filter. For evaluation of the effects of test compounds using the Ca^2+ flux assay, compounds to be tested were provided in assay ready plates. For nicotinic receptor ion channel expressing cells, the assay was initiated by the addition of 20 μl/well of Hanks buffer containing test compounds. For all assays, data were collected at 1 Hz for 10 seconds (baseline), at which time the compound containing stimulus buffers are added, and further measurements collected at 0.33 Hz for 3 min.
The statistical robustness of the nicotinic receptor Ca^2+ flux assays is determined from blanks and totals wells. […] The raw fluorescence units data files generated on the FLIPR plate reader are automatically exported and processed by in-house data analysis tools. The reduced percent activation data for each concentration of test compound are fit using MathIQ fitting engine (ID Business Solutions Limited, Surrey, UK). Data were analyzed by fitting maximum amplitudes of change in fluorescence, for Ca^2+ flux for a given condition of test compound. […] Test compound efficacy values (Ymax values) are expressed relative to a maximal response to acetylcholine in the total wells.
Background: Calcium flux is commonly read through the fluorescence of an indicator in the cells.
The molecule `Clc1ccc2nc(NC3=NCC4(CN5CCC4CC5)N3)sc2c1` (stereo not drawn) [Example 52] gave an EC50 of 154 nM.

`c1csc(NC2=NCC3(CN4CCC3CC4)N2)n1` (stereo not drawn) [Example 9] showed an EC50 of 1060 nM.

The test is the same for the next values; noted with them: FLIPR α7-HI (EC50, nM), HEK 293 cells, Ca2+ flux; Table 1, activity class.
In the case of `c1cn(-c2cc(NC3=NCC4(CN5CCC4CC5)N3)ncn2)cn1` (stereo not drawn) [Example 61], the EC50 was in the range of 100 to 1000 nM. Still for that read-out and setting: the figure for `Clc1ccc2c(NC3=NCC4(CN5CCC4CC5)N3)ncnn12` (stereo not drawn) [Example 65, N-(7-Chloropyrrolo[1,2-f][1,2,4]triazin-4-yl)-3,5-dihydro-1′-azaspiro[imidazole-4,3′-bicyclo[2.2.2]octan]-2-amine] is 100 to 1000 nM; for `CCN1C(Nc2ncc(-c3ccccc3)s2)=NCC12CN1CCC2CC1` (stereo not drawn) [Example 6] it is 1000 to 100000 nM; for `Clc1ccc2nc(NC3=NCC4(CN5CCC4CC5)N3)sc2n1` (stereo not drawn) [Example 28] it is below 100 nM.

Regarding `COc1ccc2nc(NC3=NCC4(CN5CCC4CC5)N3C)sc2c1` (stereo not drawn) [Example 2], the 50% effective concentration (EC50) is 100 to 1000 nM. For the molecule `Cc1ccc2nc(NC3=NCC4(CN5CCC4CC5)N3)oc2c1` (stereo not drawn) [Example 8b], the EC50 was in the range of 1000 to 100000 nM.

For the molecule `Fc1cccc2sc(NC3=NCC4(CN5CCC4CC5)N3)nc12` (stereo not drawn) [Example 55], the EC50 is below 100 nM. For the molecule `COc1ccc2nc(NC3=NCC4(CN5CCC4CC5)N3)sc2n1` (stereo not drawn) [Example 46], the EC50 was in the range of 100 to 1000 nM.

In turn, `Clc1ccc2nc(NC3=NCC4(CN5CCC4CC5)N3)sc2c1` (stereo not drawn) [Example 52] displayed an EC50 of 100 to 1000 nM. On to `c1ccc2c(NC3=NCC4(CN5CCC4CC5)N3)ncnc2c1` (stereo not drawn) [Example 23], for which the EC50 was 100 to 1000 nM. Still for that read-out and setting: to `c1ccc2nc(NC3=NCC4(CN5CCC4CC5)N3)cnc2c1` (stereo not drawn) [Example 36] belongs 100 to 1000 nM. `c1ccn2nc(NC3=NCC4(CN5CCC4CC5)N3)nc2c1` (stereo not drawn) [Example 34] gave an EC50 of 100 to 1000 nM.

Regarding `Cc1nnc(NC2=NCC3(CN4CCC3CC4)N2C)nc1C` (stereo not drawn) [Example 22], the EC50 was above 1e+06 nM. Still for that read-out and setting: to `CN1C(Nc2nc3cc(Cl)ccc3o2)=NCC12CN1CCC2CC1` (stereo not drawn) [Example 58] belongs 100 to 1000 nM; to `CN1C(Nc2ncnc3ccccc23)=NCC12CN1CCC2CC1` (stereo not drawn) [Example 24], 1000 to 100000 nM; to `Brc1ccc2nc(NC3=NCC4(CN5CCC4CC5)N3)sc2n1` (stereo not drawn) [Example 49], 100 to 1000 nM.

With `c1ccc2sc(NC3=NCC4(CN5CCC4CC5)N3)nc2c1` (single isomer, unassigned) [Example 11a], the EC50 is below 100 nM.

In turn, `FC(F)(F)c1ccc2c(NC3=NCC4(CN5CCC4CC5)N3)n[nH]c2c1` (stereo not drawn) [Example 51] showed an EC50 above 1e+06 nM. On to `Clc1ccc2oc(NC3=NCC4(CN5CCC4CC5)N3)nc2c1` (stereo not drawn) [Example 57], for which the EC50 was in the range of 100 to 1000 nM.

`CN1C(Nc2nc3ccccn3n2)=NCC12CN1CCC2CC1` (stereo not drawn) [Example 35] registered an EC50 of 1000 to 100000 nM. On to `Clc1ccc2nc(NC3=NCC4(CN5CCC4CC5)N3)sc2n1` (single isomer, unassigned) [Example 28b], for which the EC50 was in the range of 1000 to 100000 nM. For `CN1C(Nc2nc3ccc(F)nc3s2)=NCC12CN1CCC2CC1` (stereo not drawn) [Example 45], the concentration for a half-maximal effect (EC50) fell in the range of 1000 to 100000 nM. For the molecule `Cc1ccc2nc(NC3=NCC4(CN5CCC4CC5)N3)oc2n1` (stereo not drawn) [Example 62, N-(3,5-Dihydro-1′-azaspiro[imidazole-4,3′-bicyclo[2.2.2]octane]-2-yl)-5-methyloxazolo[5,4-b]pyridin-2-amine], the EC50 was in the range of 100 to 1000 nM. `COc1cc(NC2=NCC3(CN4CCC3CC4)N2C)ncn1` (stereo not drawn) [Example 21]: the EC50 is 100 to 1000 nM. The same measure, in the same setting: to `CN1C(Nc2nc3ccccc3s2)=NCC12CN1CCC2CC1` (stereo not drawn) [Example 12] belongs 100 to 1000 nM; to `O=c1ccc2nc(NC3=NCC4(CN5CCC4CC5)N3)sc2[nH]1` (stereo not drawn) [Example 42, 2-(1′,5′-Dihydrospiro[4-azabicyclo[2.2.2]octane-2,4′-imidazol]-2′-ylamino)[1,3]thiazolo[5,4-b]pyridin-5 (4H)-one], 100 to 1000 nM. Same read-out and setting: to `CN1C(Nc2nc3ccccc3o2)=NCC12CN1CCC2CC1` (stereo not drawn) [Example 60] belongs 100 to 1000 nM. The same measure, in the same setting: the figure for `COc1ccc2sc(NC3=NCC4(CN5CCC4CC5)N3)nc2c1` (stereo not drawn) [Example 54] is 100 to 1000 nM. Molecule `Cc1ccc2nc(NC3=NCC4(CN5CCC4CC5)N3)oc2c1` (stereo not drawn) [Example 8a] showed an EC50 below 100 nM.

As to `c1csc(NC2=NCC3(CN4CCC3CC4)N2)n1` (stereo not drawn) [Example 9], the EC50 lay in the range of 1000 to 100000 nM. Consider `CCN1C(Nc2nc3ccc(OC)cc3s2)=NCC12CN1CCC2CC1` (stereo not drawn) [Example 3], for which the EC50 is 100 to 1000 nM.

Still in this test, the particulars now being: FLIPR α7-HI (EC50, nM), HEK 293 cells, Ca2+ flux; Table 2, activity class column.
Take `c1ccc(-c2cnc(NC3=NC4(CO3)CN3CCC4CC3)s2)cc1` (stereo not drawn) [Example 68, N-(5-Phenylthiazol-2-yl)-5H-1′-azaspiro[oxazole-4,3′-bicyclo[2.2.2]octan]-2-amine]: the EC50 fell in the range of 100 to 1000 nM.

The test is the same for the next values; noted with them: FLIPR α7-HI (EC50, nM), HEK 293 cells, Ca2+ flux; Table 3.
As to `c1csc(NC2=NCCC3(CN4CCC3CC4)O2)n1` (stereo not drawn) [Example 73], the response was half-maximal at 4530 nM (EC50). As to `c1ccc2nc(NC3=NCCC4(CN5CCC4CC5)O3)ccc2c1` (stereo not drawn) [Example 86], the response was half-maximal at 1810 nM (EC50).

Still in this test, the particulars now being: FLIPR α7-HI (EC50, nM), HEK 293 cells, Ca2+ flux; Table 3, activity class.
Turning to `Clc1ccc(NC2=NCCC3(CN4CCC3CC4)O2)nc1` (stereo not drawn) [Example 75], the EC50 was in the range of 1000 to 100000 nM. The molecule `c1csc(NC2=NCCC3(CN4CCC3CC4)O2)n1` (stereo not drawn) [Example 73] yielded an EC50 of 1000 to 100000 nM. Still for that read-out and setting: the figure for `c1ccc2nc(NC3=NCCC4(CN5CCC4CC5)O3)ccc2c1` (stereo not drawn) [Example 86] is 1000 to 100000 nM; for `c1ccc2sc(NC3=NCCC4(CN5CCC4CC5)O3)nc2c1` (stereo not drawn) [Example 74] it is 100 to 1000 nM; for `Clc1cnc(NC2=NCCC3(CN4CCC3CC4)O2)cn1` (stereo not drawn) [Example 72, N-(5-Chloropyrazin-2-yl)-4,5-dihydro-1′-azaspiro[[1,3]oxazine-6,3′-bicyclo[2.2.2]octan]-2-amine] it is 1000 to 100000 nM. In the case of `COc1ccc2nc(NC3=NCCC4(CN5CCC4CC5)O3)sc2c1` (stereo not drawn) [Example 70, N-(6-Methoxybenzo[d]thiazol-2-yl)-4,5-dihydro-1′-azaspiro[[1,3]oxazine-6,3′-bicyclo[2.2.2]octan]-2-amine], the EC50 is 100 to 1000 nM.

The test is the same for the next values; noted with them: FLIPR α7-HI (EC50, nM), HEK 293 cells, Ca2+ flux; Table 4, activity class.
`COc1ccc2nc(/N=C3\OC4(CN5CCC4CC5)CN3C)sc2c1` (stereo not drawn) [Example 89, (Z)-6-Methoxy-N-(3-methyl-1′-azaspiro[oxazolidine-5,3′-bicyclo[2.2.2]octane]-2-ylidene)benzo[d]thiazol-2-amine] displayed an EC50 above 1e+06 nM. In turn, `CN1CC2(CN3CCC2CC3)O/C1=N\c1cnc(Cl)cn1` (stereo not drawn) [Example 91, (Z)-5-Chloro-N-(3-methyl-1′-azaspiro[oxazolidine-5,3′-bicyclo[2.2.2]octane]-2-ylidene)pyrazin-2-amine] came in with an EC50 of 1000 to 100000 nM. As for `CN1CC2(CN3CCC2CC3)O/C1=N\c1ncc(-c2ccccc2)s1` (stereo not drawn) [Example 90, (Z)—N-(3-Methyl-1′-azaspiro[oxazolidine-5,3′-bicyclo[2.2.2]octane]-2-ylidene)-5-phenylthiazol-2-amine], the EC50 was in the range of 100 to 1000 nM.

Still in this test, the particulars now being: HEK 293 cells, Ca2+ flux; Table 3, activity class; read-out: FLIPR α7-HI (EC50).
Regarding `c1ccc2[nH]c(NC3=NCCC4(CN5CCC4CC5)O3)nc2c1` (stereo not drawn) [Example 77], the EC50 was above 1e+06 nM.

The same test, now with this note: HEK 293 cells, Ca2+ flux; Table 3; read-out: FLIPR α7-HI (EC50).
With `c1ccc2[nH]c(NC3=NCCC4(CN5CCC4CC5)O3)nc2c1` (stereo not drawn) [Example 77], the EC50 is above 100000 nM.

The same test, now with this note: HEK 293 cells, Ca2+ flux; read-out: FLIPR α7-HI (EC50).
As for `c1ccc2[nH]c(NC3=NCC4(CN5CCC4CC5)N3)nc2c1` (stereo not drawn) [Example 16], the EC50 stood at 1290 nM.
